{"source": "patent US20020098248A1", "about": "“Method for treating and/or preventing infections caused by methicillin-resistant Staphylococcus aureus” (priority 2000, published 2002)", "tested_on": "Staphylococcus, particularly MRSA", "assay": "Examination of catechin for antimicrobial effect", "assay_type": "cell-based", "settings": "catechin only, even if it has a high concentration"}
{"substance": "catechin", "values": [{"measurement": "antimicrobial effect against Staphylococcus, particularly MRSA", "result": "does not provide a desired antimicrobial effect"}]}
